Results as given in patent publication US6143763A, “Carbostyril derivatives” (D. Western Therapeutics Institiute, priority 1995, dated 2000).
pIC50: −log10 of the molar value.

Columns and labels:
[1] = system: left common carotid artery injured by balloon; experiment: Intima thickening inhibitory activity after balloon injury (3H-thymidine in carotid artery); assay type: in vivo, male SD rats; details: Rattus norvegicus; dose 30 mg/kg, oral
Method: Pharmacological Experiment 3 Intima thickening inhibitory activity
Male SD rats (6-week old) were separated into groups (8 rats per each group) and numbered. A test compound solution, which was prepared by suspending a test compound in 1% hydroxypropylmethyl cellulose 2910 TC-5 (HPMC, manufactured by Shin-etsu Chemical Co., Ltd.) was orally administered to the rats. In the control group, 1% HPMC solution was orally administered instead of the test compound solution. One or two hours thereafter, two french balloon catheters (manufactured by Baxter Travenol Inc.) were inserted into the left common carotid artery of the rats, and the artery was injured by abrading five times with a balloon. The day of balloon abrasion was considered as Day 0. On the following day (Day 1), a test compound was orally administered to the rats two times a day (in the morning and in the evening). On Day 2, 1.48 MBq/ml of ^3 H-thymidine (dose: 5 ml/kg, manufactured by NEN Research Products, Ltd.) was injected at the tail vein of the rats about one hour after the administration of the test compound so that the time after the balloon injury was fixed to the same in each rat. Precisely 45 minutes after the injection of ^3 H-thymidine at the tail veil, the common carotid artery of the rats was taken out.
In the test compound-treated group, only the left common carotid artery which was injured by balloon was taken out, and in the control group, both the left and right common carotid arteries were taken out. The common carotid artery thus obtained was cut to pieces of exact 1 cm long, and the unnecessary portions such as the outer membrane or the nerves were completely removed. The common carotid artery was put into a glass vial, and thereto was added a 0.5 N sodium hydroxide (0.5 ml), and the mixture was incubated at 37° C. overnight to be solubilized. The mixture was neutralized with a 5 N hydrochloric acid (0.05 ml), and thereto was further added an aqueous hydrogen peroxide solution (0.1 ml). Aquasol II (10 ml, manufactured by Du Pont Co.) was added thereto, and the mixture was well stirred and then allowed to stand for 30 minutes. The radioactivity of tritium in the mixture was counted by liquid scintillation counter. The intima thickening inhibitory activity of the test compound was calculated by the following equation. [formula] L (c): The amount of tritium in the left common carotid artery in the control group (dpm)
R (c): The amount of tritium in the right common carotid artery in the control group (dpm)
L: The amount of tritium in the left common carotid artery in the test compound-treated group (dpm)

[2] = system: death induced by pulmonary infarction in mice; experiment: Antithrombotic activity: inhibition of death by collagen-induced pulmonary infarction in mice; assay type: in vivo, male ICR mice; details: Mus musculus, 1 h; 30 mg/kg oral, 10 minutes before i.v. collagen; lethality in an hour; read-out: Pulmonary infarction inhibitory activity
Text: Pharmacological Experiment 2 Antithrombotic activity
Antithrombotic activity of the test compounds was estimated by an inhibitory activity of the test compound by oral administration against death induced by pulmonary infarction in mice which was introduced by intravenous administration of collagen (pulmonary infarction inhibitory activity).
Male ICR mice (5-week old, body weight; about 25 g) was fasted overnight, and separated into groups (15 mice per each group) and numbered. A test compound solution, which was prepared by suspending a test compound in 1% hydroxypropylmethyl cellulose 2910 TC-5 (HPMC, manufactured by Shin-etsu Chemical Co., Ltd.), was orally administered to the mice, and 10 minutes thereafter, a collagen solution (the method for preparation thereof and a dose thereof are explained hereafter) was injected to the mice at the tail vein at the constant rate. The lethality of the mice was determined by the number of mice which were died in an hour after the administration of collagen solution. The antithrombotic activity of the test compound was estimated by the inhibitory rate (%) of the lethality of the mice. The collagen solution was prepared by dissolving collagen (Type III, manufactured by Sigma Chemical Ltd.) in 0.05 M acetic acid solution containing 2 mM calcium chloride and 5% glucose at 4° C. so that the final concentration of collagen was adjusted to 2.5 mg/ml, and then the pH value thereof was adjusted to pH 7.4 with sodium hydroxide the day before the experiment. The collagen solution was incubated with stirring at 37° C. for two hours, and then further stirred at room temperature overnight. Just before the experiment, the pH value of the collagen solution was adjusted again to pH 7.4. The amount of the collagen solution which was injected at the tail vein was previously determined so that the lethality by pulmonary infarction induced thereby became about 75%.

[3] = target: T1, cGMP-inhibited cAMP phosphodiesterase (PDE3) (Homo sapiens, UniProt Q14432); experiment: cGMP-inhibited cAMP phosphodiesterase (PDE3) inhibitory activity; assay type: biochemical; details: 0.4 μM [8-3H]cAMP, pH 8.0, 30° C., 15 minutes; recombinant enzyme from Sf9; read-out: PDE inhibitory activity IC50
T1 construct: made in house; host or cells: insect cell Sf9, baculovirus expression system
T1 sequence (Q14432 whole entry): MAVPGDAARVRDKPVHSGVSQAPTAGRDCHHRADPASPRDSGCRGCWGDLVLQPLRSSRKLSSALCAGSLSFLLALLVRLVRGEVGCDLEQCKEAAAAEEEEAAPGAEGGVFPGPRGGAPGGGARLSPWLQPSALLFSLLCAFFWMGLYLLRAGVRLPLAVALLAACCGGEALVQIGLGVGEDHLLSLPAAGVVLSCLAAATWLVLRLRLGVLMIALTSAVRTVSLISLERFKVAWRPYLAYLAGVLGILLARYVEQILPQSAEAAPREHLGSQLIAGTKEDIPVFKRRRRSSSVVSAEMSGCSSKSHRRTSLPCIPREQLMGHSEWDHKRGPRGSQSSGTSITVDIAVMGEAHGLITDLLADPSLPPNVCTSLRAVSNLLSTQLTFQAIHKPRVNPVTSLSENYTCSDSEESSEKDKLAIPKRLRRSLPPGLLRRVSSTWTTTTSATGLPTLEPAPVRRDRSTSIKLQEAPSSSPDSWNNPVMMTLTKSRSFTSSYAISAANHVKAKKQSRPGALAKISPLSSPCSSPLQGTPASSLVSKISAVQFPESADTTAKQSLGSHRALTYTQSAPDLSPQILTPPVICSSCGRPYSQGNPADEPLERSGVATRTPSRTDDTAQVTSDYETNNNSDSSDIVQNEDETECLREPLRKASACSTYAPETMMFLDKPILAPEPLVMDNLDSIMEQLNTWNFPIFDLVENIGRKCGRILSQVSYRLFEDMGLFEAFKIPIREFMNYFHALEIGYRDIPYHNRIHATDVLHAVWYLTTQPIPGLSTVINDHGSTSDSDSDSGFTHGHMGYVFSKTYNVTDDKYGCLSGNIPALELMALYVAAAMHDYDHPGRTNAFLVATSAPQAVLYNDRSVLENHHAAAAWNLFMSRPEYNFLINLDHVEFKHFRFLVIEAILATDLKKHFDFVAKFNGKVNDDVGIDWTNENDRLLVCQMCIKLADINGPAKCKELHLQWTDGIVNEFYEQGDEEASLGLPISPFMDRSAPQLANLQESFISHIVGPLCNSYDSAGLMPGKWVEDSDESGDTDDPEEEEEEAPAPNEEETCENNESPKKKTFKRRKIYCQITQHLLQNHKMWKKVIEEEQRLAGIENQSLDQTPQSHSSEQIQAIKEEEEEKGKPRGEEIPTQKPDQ

[4] = system: platelet aggregation (ADP); experiment: Platelet aggregation inhibitory activity, ADP-induced (Born's turbidimetry, rabbit PRP); assay type: cell-based, male rabbit (NZW); details: Oryctolagus cuniculus, ADP 7.5 μM final, 37° C.
Method: (§1) Pharmacological Experiment 1 Platelet aggregation inhibitory activity
(§2) (1) Preparation of platelet rich plasma (PRP):
(§3) The blood was collected from the carotid of a male rabbit without anesthesia (NZW species, body weight; 2-3 kg) with mixing thereof with 1/10 volume of citric acid. The blood thus obtained was separated and put into plastic test tubes (each about 7 ml), and centrifuged at 900 rpm for 15 minutes at room temperature to give a turbid supernatant as a platelet rich plasma (PRP). The residue from which PRP is separated was centrifuged at 3000 rpm for 10 minutes, and the supernatant was collected as a platelet poor plasma (PPP). The PRP was diluted with PPP so that the concentration thereof was adjusted to […], and used in the platelet aggregation inhibitory activity test.
(§4) (2) Method for platelet aggregation inhibitory activity test:
(§5) The platelet aggregation was tested according to Born's turbidimetry. That is, a test compound was dissolved in dimethylformamide, and the test compound solution (1 μl) thus obtained was put into a cuvette, and thereto was further added PRP (200 μl). Immediately thereafter, the cuvette was set into an apparatus for determining platelet aggregation activity, PAM-8T (manufactured by Mevanix Inc.), and the mixture was incubated at 37° C. Precisely three minutes thereafter, a solution of adenosine diphosphate (ADP, PA test ADP [MCM], purchased by MC Medical Ltd.) in physiological saline solution or a collagen solution (Collagenreagent Horm, purchased by MC Medical Ltd.) (20 μl) was added thereto. The final concentration of the ADP solution or the collagen solution was 7.5 μM or 20 μg/ml, respectively.
(§6) The maximum aggregation rate and the aggregation inhibitory rate were calculated by the following equations. [formula]
(§7) IC50, which is a concentration of the test compound being required to inhibit the platelet aggregation reaction by 50%, was determined from the aggregation inhibitory rates at two different concentrations of a test compound.

[5] = system: platelet aggregation (collagen); experiment: Platelet aggregation inhibitory activity, collagen-induced (Born's turbidimetry, rabbit PRP); assay type: cell-based, male rabbit (NZW); details: Oryctolagus cuniculus, collagen 20 μg/ml final, 37° C.
Method: as §1, §2, §3, §4, §5, §6, §7

SMILES | inhibition in vivo at 30 mg/kg [1] | inhibition in vivo at 30 mg/kg [2] | pIC50 [3] | pIC50 [4] | pIC50 [5]
CCC(O)CN(C(=O)NCCCOc1ccc2[nH]c(=O)ccc2c1)C1CCCCC1 (centres unmarked) [Ex. 10] | 34.2% | 74% | 7.61 | 6.40 | 6.52
O=C(NCCCOc1cc(F)c2[nH]c(=O)ccc2c1)N(C1CC1)[C@@H]1CCCC[C@H]1O (relative stereo) [Ex. 26] | 16% | 85% | 7.13 | 6.35 | 5.52
O=C(NCCCOc1ccc2[nH]c(=O)ccc2c1)N(C1CC1)[C@@H]1CCCC[C@H]1OCCCO [Ex. 17, (R,R)-(-)-6-{3-[3-[trans-2-(3-hydroxypropoxy)cyclohexyl]-3-cyclopropylureido]propoxy}carbostyril] | 16% | 100% | 7.22 | 6.85 | 5.62
CN(CCCOc1ccc2[nH]c(=O)ccc2c1)C(=O)N(C)C1CCCCC1 [Ex. 12, 6-[3-(1,3-dimethyl-3-cyclohexylureido)propoxy]carbostyril] | 21.1% | 100% | 6.71 | 4.50 | 4.69
